The nature of this test: Sensory panel screening of natural coolants versus menthol in sugar solution (Example 1). Type of test: in vivo, human. The note with it: 100 ppm in 5% sugar solution, 10 mL held 10 s, panel N=6; for Cooling Relative to 100 ppm Menthol: 9-point scale, menthol fixed as 5.0. The method, then: 100 ppm of naturally sourced menthyl lactate, menthyl succinate, and isopulegol were screened in 5% sugar solution for cooling and bitterness properties relative to 100 ppm menthol in 5% sucrose solution.
10 mL of each sample was orally evaluated by a panel (N=6) for 10 seconds, then expectorated. Cooling strength, flavor strength, and bitterness or off-taste was evaluated on a 9-point scale in comparison to 100 ppm menthol evaluated as a control, with 0 being the lowest and 9 being the highest measure on the scale. Subjects evaluated the coolant attributes at T0 (immediately after expectorating), 1, 2, 5 and 10 minute time points post expectoration.
Prior to the test, each subject calibrated their cooling and bitterness scale by performing the same evaluation on 10 mL of 100 ppm of L-menthol (prepared the same way as the natural coolants). The menthol solution was held in the mouth for 10 seconds as a calibration sample and the cooling strength and bitterness were fixed as 5.0 at the initial T0 time point.
Panelists were asked to rate the cooling and bitterness intensity of the compounds in solution, relative to the solution of 100 ppm of menthol, when tested in comparative screenings. The ratings are summarized in Table 1, showing the cooling and bitterness of the coolants compared to menthol.

This note sets out measurements from patent publication US11382347B2, “Natural cooling formulations” (WM. WRIGLEY JR. COMPANY, priority 2015, dated 2022).

The structures appear in SMILES notation.

Turning to `CC1CCC(C(C)C)C(O)C1` (centres unmarked) [Menthol (Control), menthol, reference compound], the “Bitterness Relative to 100 ppm Menthol” value was found to be 1.0 and the “Cooling Relative to 100 ppm Menthol” value was 1.0.
Consider `C=C(C)C1CCC(C)CC1O` (centres unmarked) [Natural Isopulegol, isopulegol], for which the “Bitterness Relative to 100 ppm Menthol” value turned out to be 0.8 and the “Cooling Relative to 100 ppm Menthol” value is on record as 0.7.
The corresponding values for `CC1CCC(C(C)C)C(OC(=O)C(C)O)C1` (centres unmarked) [Natural Menthyl Lactate, menthyl lactate] are 1.7 and 1.1.
The corresponding values for `CC1CCC(C(C)C)C(OC(=O)CCC(=O)O)C1` (centres unmarked) [Natural Menthyl Succinate, mono-menthyl succinate] are 0.8 and 0.6.
